Assay results published in ChEMBL document CHEMBL2331210, “New 2-benzylsulfanyl-nicotinic acid based 1,3,4-oxadiazoles: their synthesis and biological evaluation” (2013).
In brackets after ≈: the same amount, converted by molar mass.

Tests used:
UO-31 = assay: Antitumor activity against human UO31 cells assessed as cell growth at 0.1 uM; format: functional; conditions: read-out: Activity
TK-10 = assay: Antitumor activity against human TK10 cells assessed as cell growth at 0.1 uM; format: functional; conditions: read-out: Activity
SN12C = assay: Antitumor activity against human SN12C cells assessed as cell growth at 0.1 uM; format: functional; conditions: read-out: Activity
RXF 393 = assay: Antitumor activity against human RXF393 cells assessed as cell growth at 0.1 uM; format: functional; conditions: read-out: Activity
ACHN = assay: Antitumor activity against human ACHN cells assessed as cell growth at 0.1 uM; format: functional; conditions: read-out: Activity
CAKI-1 = assay: Antitumor activity against human CAKI-1 cells assessed as cell growth at 0.1 uM; format: functional; conditions: read-out: Activity
A498 = assay: Antitumor activity against human A498 cells assessed as cell growth at 0.1 uM; format: functional; conditions: read-out: Activity
SK-OV-3 = assay: Antitumor activity against human SKOV3 cells assessed as cell growth at 0.1 uM; format: functional; conditions: read-out: Activity
NCI/ADR-RES = assay: Antitumor activity against human NCI/ADR-RES cells assessed as cell growth at 0.1 uM; format: functional; conditions: read-out: Activity
OVCAR-8 = assay: Antitumor activity against human OVCAR8 cells assessed as cell growth at 0.1 uM; format: functional; conditions: read-out: Activity
OVCAR-5 = assay: Antitumor activity against human OVCAR5 cells assessed as cell growth at 0.1 uM; format: functional; conditions: read-out: Activity
OVCAR-3 = assay: Antitumor activity against human OVCAR3 cells assessed as cell growth at 0.1 uM; format: functional; conditions: read-out: Activity
OVCAR-4 = assay: Antitumor activity against human OVCAR4 cells assessed as cell growth at 0.1 uM; format: functional; conditions: read-out: Activity
IGROV-1 = assay: Antitumor activity against human IGROV1 cells assessed as cell growth at 0.1 uM; format: functional; conditions: read-out: Activity
UACC-62 = assay: Antitumor activity against human UACC62 cells assessed as cell growth at 0.1 uM; format: functional; conditions: read-out: Activity
UACC-257 = assay: Antitumor activity against human UACC257 cells assessed as cell growth at 0.1 uM; format: functional; conditions: read-out: Activity
SK-MEL-5 = assay: Antitumor activity against human SK-MEL-5 cells assessed as cell growth at 0.1 uM; format: functional; conditions: read-out: Activity
SK-MEL-28 = assay: Antitumor activity against human SK-MEL-28 cells assessed as cell growth at 0.1 uM; format: functional; conditions: read-out: Activity
MDA-MB-435 = assay: Antitumor activity against human MDA-MB-435 cells assessed as cell growth at 0.1 uM; format: functional; conditions: read-out: Activity
M14 = assay: Antitumor activity against human M14 cells assessed as cell growth at 0.1 uM; format: functional; conditions: read-out: Activity
Malme-3M = assay: Antitumor activity against human MALME-3M cells assessed as cell growth at 0.1 uM; format: functional; conditions: read-out: Activity
LOX IMVI = assay: Antitumor activity against human LOXIMVI cells assessed as cell growth at 0.1 uM; format: functional; conditions: read-out: Activity
U-251 = assay: Antitumor activity against human U251 cells assessed as cell growth at 0.1 uM; format: functional; conditions: read-out: Activity
SNB-75 = assay: Antitumor activity against human SNB75 cells assessed as cell growth at 0.1 uM; format: functional; conditions: read-out: Activity
SF-539 = assay: Antitumor activity against human SF539 cells assessed as cell growth at 0.1 uM; format: functional; conditions: read-out: Activity
SNB-19 = assay: Antitumor activity against human SNB19 cells assessed as cell growth at 0.1 uM; format: functional; conditions: read-out: Activity
SF-295 = assay: Antitumor activity against human SF295 cells assessed as cell growth at 0.1 uM; format: functional; conditions: read-out: Activity
SF-268 = assay: Antitumor activity against human SF268 cells assessed as cell growth at 0.1 uM; format: functional; conditions: read-out: Activity
SW-620 = assay: Antitumor activity against human SW620 cells assessed as cell growth at 0.1 uM; format: functional; conditions: read-out: Activity
HCT-15 = assay: Antitumor activity against human HCT15 cells assessed as cell growth at 0.1 uM; format: functional; conditions: read-out: Activity
HT-29 = assay: Antitumor activity against human HT-29 cells assessed as cell growth at 0.1 uM; format: functional; conditions: read-out: Activity
HCT-116 = assay: Antitumor activity against human HCT116 cells assessed as cell growth at 0.1 uM; format: functional; conditions: read-out: Activity
[1] = Antitumor activity against human HCC2998 cells assessed as cell growth at 0.1 uM; format: functional; conditions: HCC 2998, read-out: Activity
NCI-H460 = assay: Antitumor activity against human NCI-H460 cells assessed as cell growth at 0.1 uM; format: functional; conditions: read-out: Activity
NCI-H522 = assay: Antitumor activity against human NCI-H522 cells assessed as cell growth at 0.1 uM; format: functional; conditions: read-out: Activity
NCI-H23 = assay: Antitumor activity against human NCI-H23 cells assessed as cell growth at 0.1 uM; format: functional; conditions: read-out: Activity
NCI-H226 = assay: Antitumor activity against human NCI-H226 cells assessed as cell growth at 0.1 uM; format: functional; conditions: read-out: Activity
HOP-62 = assay: Antitumor activity against human HOP62 cells assessed as cell growth at 0.1 uM; format: functional; conditions: read-out: Activity
[2] = Antitumor activity against human EKVX cells assessed as cell growth at 0.1 uM; format: functional; conditions: read-out: Activity
A549 = assay: Antitumor activity against human A549/ATCC cells assessed as cell growth at 0.1 uM; format: functional; conditions: read-out: Activity
SR = assay: Antitumor activity against human SR cells assessed as cell growth at 0.1 uM; format: functional; conditions: read-out: Activity
MOLT-4 = assay: Antitumor activity against human MOLT4 cells assessed as cell growth at 0.1 uM; format: functional; conditions: read-out: Activity
RPMI-8226 = assay: Antitumor activity against human RPMI8226 cells assessed as cell growth at 0.1 uM; format: functional; conditions: read-out: Activity
K562 = assay: Antitumor activity against human K562 cells assessed as cell growth at 0.1 uM; format: functional; conditions: read-out: Activity
HL-60 = assay: Antitumor activity against human HL60(TB) cells assessed as cell growth at 0.1 uM; format: functional; conditions: read-out: Activity
CCRF-CEM = assay: Antitumor activity against human CCRF-CEM cells assessed as cell growth at 0.1 uM; format: functional; conditions: read-out: Activity
[3] = test system: Mycobacterium tuberculosis; assay: Antitubercular activity against Mycobacterium tuberculosis H37Rv assessed as growth inhibition after 12 to 28 days by L.J. agar MIC method; format: functional
Aspergillus clavatus = assay: Antimicrobial activity against Aspergillus clavatus MTCC 1323 assessed as growth inhibition measured after overnight incubation by broth dilution method; format: functional
Aspergillus niger = assay: Antimicrobial activity against Aspergillus niger MTCC 282 assessed as growth inhibition measured after overnight incubation by broth dilution method; format: functional
Candida albicans = assay: Antimicrobial activity against Candida albicans MTCC 227 assessed as growth inhibition measured after overnight incubation by broth dilution method; format: functional
Pseudomonas aeruginosa = assay: Antimicrobial activity against Pseudomonas aeruginosa MTCC 2488 assessed as growth inhibition measured after overnight incubation by broth dilution method; format: functional
Escherichia coli = assay: Antimicrobial activity against Escherichia coli MTCC 443 assessed as growth inhibition measured after overnight incubation by broth dilution method; format: functional
Streptococcus pyogenes = assay: Antimicrobial activity against Streptococcus pyogenes MTCC 442 assessed as growth inhibition measured after overnight incubation by broth dilution method; format: functional
Staphylococcus aureus = assay: Antimicrobial activity against Staphylococcus aureus MTCC 96 assessed as growth inhibition measured after overnight incubation by broth dilution method; format: functional
MDA-MB-468 = assay: Antitumor activity against human MDA-MB-468 cells assessed as cell growth at 0.1 uM; format: functional; conditions: read-out: Activity
T47D = assay: Antitumor activity against human T47D cells assessed as cell growth at 0.1 uM; format: functional; conditions: read-out: Activity
[4] = Antitumor activity against human Hs 578T cells assessed as cell growth at 0.1 uM; format: functional; conditions: read-out: Activity
BT-549 = assay: Antitumor activity against human BT549 cells assessed as cell growth at 0.1 uM; format: functional; conditions: read-out: Activity
MDA-MB-231 = assay: Antitumor activity against human MDA-MB-231/ATCC cells assessed as cell growth at 0.1 uM; format: functional; conditions: read-out: Activity
DU-145 = assay: Antitumor activity against human DU145 cells assessed as cell growth at 0.1 uM; format: functional; conditions: read-out: Activity
MCF7 = assay: Antitumor activity against human MCF7 cells assessed as cell growth at 0.1 uM; format: functional; conditions: read-out: Activity
PC-3 = assay: Antitumor activity against human PC3 cells assessed as cell growth at 0.1 uM; format: functional; conditions: read-out: Activity
SK-MEL-2 = assay: cells; conditions: Homo sapiens, SK-MEL-2, read-out: Activity
Description: Antitumor activity against human SK-MEL-2 cells assessed as cell growth at 0.1 uM

In the case of `O=C(CSc1nnc(-c2cccnc2SCc2ccccc2)o1)Nc1nc(Cl)cc(Cl)n1`, the growth at 0.1 µM (UO-31) was 67.7%, the growth at 0.1 µM (TK-10) was 109% and the growth at 0.1 µM (SN12C) was 103%. For the same compound, the growth at 0.1 µM (RXF 393) was 105%, the growth at 0.1 µM (ACHN) was 103% and the growth at 0.1 µM (CAKI-1) was 95.8%. The growth at 0.1 µM (A498) was 112%, the growth at 0.1 µM (SK-OV-3) was 110% and the growth at 0.1 µM (NCI/ADR-RES) was 101%. It also gave a growth at 0.1 µM (OVCAR-8) of 102%, a growth at 0.1 µM (OVCAR-5) of 106% and a growth at 0.1 µM (OVCAR-3) of 106%. The growth at 0.1 µM (OVCAR-4) was 106%, the growth at 0.1 µM (IGROV-1) was 105% and the growth at 0.1 µM (UACC-62) was 101%. The growth at 0.1 µM (UACC-257) was 113%, the growth at 0.1 µM (SK-MEL-5) was 101% and the growth at 0.1 µM (SK-MEL-28) was 113%. The growth at 0.1 µM (MDA-MB-435) was 105%, the growth at 0.1 µM (M14) was 92% and the growth at 0.1 µM (Malme-3M) was 94%. For the same compound, the growth at 0.1 µM (LOX IMVI) was 94.9%, the growth at 0.1 µM (U-251) was 106% and the growth at 0.1 µM (SNB-75) was 85.7%. It also gave a growth at 0.1 µM (SF-539) of 101%, a growth at 0.1 µM (SNB-19) of 106% and a growth at 0.1 µM (SF-295) of 96.8%. It also gave a growth at 0.1 µM (SF-268) of 99.8%, a growth at 0.1 µM (SW-620) of 103% and a growth at 0.1 µM (HCT-15) of 106%. It also gave a growth at 0.1 µM (HT-29) of 110%, a growth at 0.1 µM (HCT-116) of 97.2% and a growth at 0.1 µM [1] of 103%. It also gave a growth at 0.1 µM (NCI-H460) of 105%, a growth at 0.1 µM (NCI-H522) of 83.1% and a growth at 0.1 µM (NCI-H23) of 102%. The growth at 0.1 µM (NCI-H226) was 83.7%, the growth at 0.1 µM (HOP-62) was 90.6% and the growth at 0.1 µM [2] was 103%. The growth at 0.1 µM (A549) was 104%, the growth at 0.1 µM (SR) was 101% and the growth at 0.1 µM (MOLT-4) was 95.7%. For the same compound, the growth at 0.1 µM (RPMI-8226) was 100%, the growth at 0.1 µM (K562) was 92.8% and the growth at 0.1 µM (HL-60) was 98.3%. For the same compound, the growth at 0.1 µM (CCRF-CEM) was 101%, the “growth inhibition (GI)” value [3] was 98% and the MIC ([3]; Mycobacterium tuberculosis, H37Rv) was 100 µg/mL (≈ 198 µM). It also gave an MIC (Aspergillus clavatus) of 500 µg/mL (≈ 989 µM), an MIC (Aspergillus niger) of 500 µg/mL (≈ 989 µM) and an MIC (Candida albicans) of 1000 µg/mL (≈ 1980 µM). The MIC (Pseudomonas aeruginosa) was 200 µg/mL (≈ 396 µM), the MIC (Escherichia coli) was 200 µg/mL (≈ 396 µM) and the MIC (Streptococcus pyogenes) was 200 µg/mL (≈ 396 µM). The MIC (Staphylococcus aureus) was 250 µg/mL (≈ 495 µM), the growth at 0.1 µM (MDA-MB-468) was 98.8% and the growth at 0.1 µM (T47D) was 98.5%. The growth at 0.1 µM [4] was 97.4%, the growth at 0.1 µM (BT-549) was 102% and the growth at 0.1 µM (MDA-MB-231) was 92%. For the same compound, the growth at 0.1 µM (DU-145) was 107%, the growth at 0.1 µM (MCF7) was 92% and the growth at 0.1 µM (PC-3) was 94.5%. It also gave a growth at 0.1 µM (SK-MEL-2) of 102%.
